According to PMC9186412, “Rational Framework for the Design of Trp- and Arg-Rich Peptide Antibiotics Against Multidrug-Resistant Bacteria” (Frontiers in Microbiology, 2022):
Where two headings read alike, the source gives them in different places. Where no end group is shown, it is not given here.

How the values were obtained:
CDC AR isolates [1] = system: CDC AR isolates; design: key: S (green), susceptible; I (blue), intermediate; R (red), resistant; conditions: data provided by the CDC, ref CDC, cited from earlier work
Text: Supplement Table_3.XLSX, sheet "CDC AR isolates profiles" | column: G(-) strains

CDC AR isolates [2] = system: CDC AR isolates; design: key: S (green), susceptible; I (blue), intermediate; R (red), resistant; conditions: data provided by the CDC, ref CDC, cited from earlier work; remark: listed apart in the source
A. baumannii = assay: microbe, parasite or virus in culture; assay type: cell-based, Acinetobacter baumannii; conditions: 18 h
Experimental: (§1) Bacterial clinical isolates, used for initial screening and in previous studies ([Deslouches et al., 2013]; [Lin et al., 2018]), were anonymously provided by the clinical microbiology laboratory of the University of Pittsburgh medical Center. The panel used for secondary screening was from [CDC (2013)] (Supplementary Table 3), with resistance profiles data. Bacteria are stored in lock-secured –80°C freezer and typically retrieved by obtaining single colonies on agar plates prior for subsequent liquid broth cultures. Suspensions of test bacteria were prepared from log phase of growth by diluting overnight cultures at 1:100 with fresh cation-adjusted MHB (MHB2, Millipore Sigma, United States) and incubating for additional 3–4 h. Bacteria were spun at 3,000 × g for 10 min and the pellet resuspended in test condition media (Millipore Sigma, United States) to determine bacterial turbidity using a Den-1B densitometer (Grant Instruments, United States) at 0.5 McFarland (unit of bacterial density) corresponding to […].
(§2) To examine antibacterial activity, we used minor modifications of a standard growth inhibition assay endorsed by the Clinical and Laboratory Standards Institute (CLSI), as previously described ([Deslouches et al., 2013]). Bacteria were incubated with each of the indicated peptides in MHB2. The bacterial cells were kept in an incubator for 18 h at 37°C, which is linked to a robotic system that feeds a plate reader every hour with one of 8 × 96-well plates. This set-up allows the collection of growth kinetic data at A 570 (absorbance at 570 nm) to examine growth inhibition in real time (BioTek Instruments, United States). […] The assays are typically repeated a second time. If the MIC is different, a third experimental trial is performed to confirm the MIC. To assess bactericidal properties of the peptide, the assay was modified by using 15% fetal bovine serum (FBS, for a more physiologically relevant test condition) mixed with 25% MHB2 and 60% PBS. Bacterial cells (colony forming unit/mL or CFU/mL) were enumerated after incubating treated bacteria for 3 h and plating serially diluted samples on broth agar medium at 37°C overnight. Minimum bactericidal concentration (MBC) was determined as the peptide concentration at which complete bacterial killing was observed. […] Data were analyzed using GraphPad Prism software.

E. coli = assay: microbe, parasite or virus in culture; assay type: cell-based, Escherichia coli
Experimental: as §1, §2

[3] = Enterococcus faecium EF500, CDC AR isolate
[4] = Enterococcus faecium EF671, CDC AR isolate
[5] = Enterococcus faecium EF672, CDC AR isolate
[6] = Staphylococcus aureus SA462, CDC AR isolate
[7] = Staphylococcus aureus SA463, CDC AR isolate
[8] = Staphylococcus aureus SA561, CDC AR isolate
[9] = Enterococcus faecium EF673, CDC AR isolate
[10] = Staphylococcus aureus SA461, CDC AR isolate
[11] = Acinetobacter baumannii AB273, CDC AR isolate
[12] = Acinetobacter baumannii AB274, CDC AR isolate
[13] = Acinetobacter baumannii AB275, CDC AR isolate
[14] = Acinetobacter baumannii AB276, CDC AR isolate
[15] = Enterobacter cloacae E62, CDC AR isolate
[16] = Enterobacter cloacae E544, CDC AR isolate
[17] = Enterobacter cloacae E545, CDC AR isolate
[18] = Enterobacter cloacae E546, CDC AR isolate
[19] = Escherichia coli EC541, CDC AR isolate
[20] = Escherichia coli EC543, CDC AR isolate
[21] = Escherichia coli EC544, CDC AR isolate
[22] = Escherichia coli EC549, CDC AR isolate
[23] = Klebsiella pneumoniae KP542, CDC AR isolate
[24] = Klebsiella pneumoniae KP548, CDC AR isolate
[25] = Klebsiella pneumoniae KP550, CDC AR isolate
[26] = Klebsiella pneumoniae KP552, CDC AR isolate
[27] = Pseudomonas aeruginosa PA229, CDC AR isolate
[28] = Pseudomonas aeruginosa PA230, CDC AR isolate
[29] = Pseudomonas aeruginosa PA231, CDC AR isolate
[30] = Pseudomonas aeruginosa PA232, CDC AR isolate
[31] = Pseudomonas aeruginosa PA239, CDC AR isolate

C[C@H]1c2cccc(O)c2C(=O)C2=C(O)[C@]3(O)C(=O)C(C(N)=O)=C(O)[C@@H](N(C)C)[C@@H]3[C@@H](O)[C@@H]21 [Doxycycline]
I: Antibiotic susceptibility profile (CDC AR isolates [1]; [3]) | Antibiotic susceptibility profile (CDC AR isolates [1]; [5]) | Antibiotic susceptibility profile (CDC AR isolates [1]; [8])
S: Antibiotic susceptibility profile (CDC AR isolates [1]; [4]) | Antibiotic susceptibility profile (CDC AR isolates [1]; [6]) | Antibiotic susceptibility profile (CDC AR isolates [1]; [7]) | Antibiotic susceptibility profile (CDC AR isolates [2]; [9]) | Antibiotic susceptibility profile (CDC AR isolates [2]; [10])

CC[C@H]1OC(=O)[C@H](C)[C@@H](O[C@H]2C[C@@](C)(OC)[C@@H](O)[C@H](C)O2)[C@H](C)[C@@H](O[C@@H]2O[C@H](C)C[C@H](N(C)C)[C@H]2O)[C@](C)(O)C[C@@H](C)C(=O)[C@H](C)[C@@H](O)[C@]1(C)O [Erythromycin]
I: Antibiotic susceptibility profile (CDC AR isolates [1]; [8])
S: Antibiotic susceptibility profile (CDC AR isolates [1]; [6]) | Antibiotic susceptibility profile (CDC AR isolates [1]; [7])
R: Antibiotic susceptibility profile (CDC AR isolates [2]; [10])

CNC(C)C1CCC(N)C(OC2C(N)CC(N)C(OC3OCC(C)(O)C(NC)C3O)C2O)O1 (centres unmarked) [Gentamicin]
S: Antibiotic susceptibility profile (CDC AR isolates [1]; [15]) | Antibiotic susceptibility profile (CDC AR isolates [1]; [18]) | Antibiotic susceptibility profile (CDC AR isolates [1]; [19]) | Antibiotic susceptibility profile (CDC AR isolates [1]; [22]) | Antibiotic susceptibility profile (CDC AR isolates [1]; [24]) | Antibiotic susceptibility profile (CDC AR isolates [1]; [26]) | Antibiotic susceptibility profile (CDC AR isolates [1]; [27]) | Antibiotic susceptibility profile (CDC AR isolates [1]; [6]) | Antibiotic susceptibility profile (CDC AR isolates [1]; [7]) | Antibiotic susceptibility profile (CDC AR isolates [1]; [8]) | Antibiotic susceptibility profile (CDC AR isolates [2]; [10])
R: Antibiotic susceptibility profile (CDC AR isolates [1]; [11]) | Antibiotic susceptibility profile (CDC AR isolates [1]; [12]) | Antibiotic susceptibility profile (CDC AR isolates [1]; [13]) | Antibiotic susceptibility profile (CDC AR isolates [1]; [14]) | Antibiotic susceptibility profile (CDC AR isolates [1]; [16]) | Antibiotic susceptibility profile (CDC AR isolates [1]; [17]) | Antibiotic susceptibility profile (CDC AR isolates [1]; [20]) | Antibiotic susceptibility profile (CDC AR isolates [1]; [21]) | Antibiotic susceptibility profile (CDC AR isolates [1]; [23]) | Antibiotic susceptibility profile (CDC AR isolates [1]; [25]) | Antibiotic susceptibility profile (CDC AR isolates [1]; [28]) | Antibiotic susceptibility profile (CDC AR isolates [1]; [29]) | Antibiotic susceptibility profile (CDC AR isolates [1]; [30]) | Antibiotic susceptibility profile (CDC AR isolates [1]; [31])

C[C@H]1COc2c(N3CCN(C)CC3)c(F)cc3c(=O)c(C(=O)O)cn1c23 [Levofloxacin]
R: Antibiotic susceptibility profile (CDC AR isolates [1]; [11]) | Antibiotic susceptibility profile (CDC AR isolates [1]; [12]) | Antibiotic susceptibility profile (CDC AR isolates [1]; [13]) | Antibiotic susceptibility profile (CDC AR isolates [1]; [14]) | Antibiotic susceptibility profile (CDC AR isolates [1]; [15]) | Antibiotic susceptibility profile (CDC AR isolates [1]; [16]) | Antibiotic susceptibility profile (CDC AR isolates [1]; [18]) | Antibiotic susceptibility profile (CDC AR isolates [1]; [3]) | Antibiotic susceptibility profile (CDC AR isolates [1]; [19]) | Antibiotic susceptibility profile (CDC AR isolates [1]; [20]) | Antibiotic susceptibility profile (CDC AR isolates [1]; [21]) | Antibiotic susceptibility profile (CDC AR isolates [1]; [22]) | Antibiotic susceptibility profile (CDC AR isolates [1]; [23]) | Antibiotic susceptibility profile (CDC AR isolates [1]; [24]) | Antibiotic susceptibility profile (CDC AR isolates [1]; [25]) | Antibiotic susceptibility profile (CDC AR isolates [1]; [26]) | Antibiotic susceptibility profile (CDC AR isolates [1]; [27]) | Antibiotic susceptibility profile (CDC AR isolates [1]; [28]) | Antibiotic susceptibility profile (CDC AR isolates [1]; [29]) | Antibiotic susceptibility profile (CDC AR isolates [1]; [30]) | Antibiotic susceptibility profile (CDC AR isolates [1]; [31]) | Antibiotic susceptibility profile (CDC AR isolates [1]; [6]) | Antibiotic susceptibility profile (CDC AR isolates [1]; [8]) | Antibiotic susceptibility profile (CDC AR isolates [2]; [10])
S: Antibiotic susceptibility profile (CDC AR isolates [1]; [17]) | Antibiotic susceptibility profile (CDC AR isolates [1]; [4]) | Antibiotic susceptibility profile (CDC AR isolates [1]; [5]) | Antibiotic susceptibility profile (CDC AR isolates [1]; [7]) | Antibiotic susceptibility profile (CDC AR isolates [2]; [9])

CC(=O)NC[C@H]1CN(c2ccc(N3CCOCC3)c(F)c2)C(=O)O1 [Linezolid]
S: Antibiotic susceptibility profile (CDC AR isolates [1]; [3]) | Antibiotic susceptibility profile (CDC AR isolates [1]; [4]) | Antibiotic susceptibility profile (CDC AR isolates [1]; [5]) | Antibiotic susceptibility profile (CDC AR isolates [1]; [6]) | Antibiotic susceptibility profile (CDC AR isolates [1]; [7]) | Antibiotic susceptibility profile (CDC AR isolates [1]; [8]) | Antibiotic susceptibility profile (CDC AR isolates [2]; [9]) | Antibiotic susceptibility profile (CDC AR isolates [2]; [10])

CO[C@H]1/C=C/O[C@@]2(C)Oc3c(C)c(O)c4c(O)c(c(/C=N/N5CCN(C)CC5)c(O)c4c3C2=O)NC(=O)/C(C)=C\C=C\[C@H](C)[C@H](O)[C@@H](C)[C@@H](O)[C@@H](C)[C@H](OC(C)=O)[C@@H]1C [Rifampin]
S: Antibiotic susceptibility profile (CDC AR isolates [1]; [6]) | Antibiotic susceptibility profile (CDC AR isolates [1]; [7]) | Antibiotic susceptibility profile (CDC AR isolates [2]; [9]) | Antibiotic susceptibility profile (CDC AR isolates [2]; [10])
R: Antibiotic susceptibility profile (CDC AR isolates [1]; [3])
I: Antibiotic susceptibility profile (CDC AR isolates [1]; [4]) | Antibiotic susceptibility profile (CDC AR isolates [1]; [5])

CN(C)[C@@H]1C(O)=C(C(N)=O)C(=O)[C@@]2(O)C(O)=C3C(=O)c4c(O)cccc4[C@@](C)(O)[C@H]3C[C@@H]12 [Tetracycline]
S: Antibiotic susceptibility profile (CDC AR isolates [1]; [14]) | Antibiotic susceptibility profile (CDC AR isolates [1]; [15]) | Antibiotic susceptibility profile (CDC AR isolates [1]; [25]) | Antibiotic susceptibility profile (CDC AR isolates [1]; [6]) | Antibiotic susceptibility profile (CDC AR isolates [1]; [7]) | Antibiotic susceptibility profile (CDC AR isolates [2]; [10])
I: Antibiotic susceptibility profile (CDC AR isolates [1]; [17]) | Antibiotic susceptibility profile (CDC AR isolates [1]; [24])
R: Antibiotic susceptibility profile (CDC AR isolates [1]; [11]) | Antibiotic susceptibility profile (CDC AR isolates [1]; [12]) | Antibiotic susceptibility profile (CDC AR isolates [1]; [13]) | Antibiotic susceptibility profile (CDC AR isolates [1]; [16]) | Antibiotic susceptibility profile (CDC AR isolates [1]; [18]) | Antibiotic susceptibility profile (CDC AR isolates [1]; [19]) | Antibiotic susceptibility profile (CDC AR isolates [1]; [20]) | Antibiotic susceptibility profile (CDC AR isolates [1]; [21]) | Antibiotic susceptibility profile (CDC AR isolates [1]; [22]) | Antibiotic susceptibility profile (CDC AR isolates [1]; [23]) | Antibiotic susceptibility profile (CDC AR isolates [1]; [26]) | Antibiotic susceptibility profile (CDC AR isolates [1]; [8])

CN[C@H](CC(C)C)C(=O)N[C@H]1C(=O)N[C@@H](CC(N)=O)C(=O)N[C@H]2C(=O)N[C@H]3C(=O)N[C@H](C(=O)N[C@H](C(=O)O)c4cc(O)cc(O)c4-c4cc3ccc4O)[C@H](O)c3ccc(c(Cl)c3)Oc3cc2cc(c3O[C@@H]2O[C@H](CO)[C@@H](O)[C@H](O)[C@H]2O[C@H]2C[C@](C)(N)[C@H](O)[C@H](C)O2)Oc2ccc(cc2Cl)[C@H]1O [Vancomycin]
S: Antibiotic susceptibility profile (CDC AR isolates [1]; [3]) | Antibiotic susceptibility profile (CDC AR isolates [1]; [4]) | Antibiotic susceptibility profile (CDC AR isolates [1]; [5]) | Antibiotic susceptibility profile (CDC AR isolates [1]; [7]) | Antibiotic susceptibility profile (CDC AR isolates [1]; [8]) | Antibiotic susceptibility profile (CDC AR isolates [2]; [9]) | Antibiotic susceptibility profile (CDC AR isolates [2]; [10])
I: Antibiotic susceptibility profile (CDC AR isolates [1]; [6])

Penicillin
R: Antibiotic susceptibility profile (CDC AR isolates [1]; [3]) | Antibiotic susceptibility profile (CDC AR isolates [1]; [6]) | Antibiotic susceptibility profile (CDC AR isolates [1]; [7]) | Antibiotic susceptibility profile (CDC AR isolates [1]; [8])
S: Antibiotic susceptibility profile (CDC AR isolates [1]; [4]) | Antibiotic susceptibility profile (CDC AR isolates [1]; [5]) | Antibiotic susceptibility profile (CDC AR isolates [2]; [9]) | Antibiotic susceptibility profile (CDC AR isolates [2]; [10])

RRVWRRVRRVWRRVRRVVRRVW [E71]
8 µM: MIC (A. baumannii)

RRVWRRVRRVWRRVRRWVRRVV [E72]
0.5 µM: MIC (E. coli)

RRWVRWVRRWVRWVRR [E80]
16 µM: MIC (A. baumannii)

RVWRRVRRVWRRVRRVWRRV [E69]
8 µM: MIC (A. baumannii)

Teicoplanin
S: Antibiotic susceptibility profile (CDC AR isolates [1]; [3]) | Antibiotic susceptibility profile (CDC AR isolates [1]; [4]) | Antibiotic susceptibility profile (CDC AR isolates [1]; [5]) | Antibiotic susceptibility profile (CDC AR isolates [2]; [9])
